In ChEMBL document CHEMBL1914283, “Synthesis and evaluation of pyridazinone-phenethylamine derivatives as selective and orally bioavailable histamine H3 receptor antagonists with robust wake-promoting activity” (Bioorg Med Chem Lett, 2011):
One block for each compound: values may come before it. The source made the active and inactive calls. The rule behind the calls is not given here.

Key:
Histamine H3 receptor [1] = molecular target: T1, Histamine H3 receptor (Homo sapiens, UniProt Q9Y5N1); assay: Displacement of [3H]NAMH from human H3R expressed in CHO cells; type: cell-based
Target sequence in this assay (Q9Y5N1 whole entry): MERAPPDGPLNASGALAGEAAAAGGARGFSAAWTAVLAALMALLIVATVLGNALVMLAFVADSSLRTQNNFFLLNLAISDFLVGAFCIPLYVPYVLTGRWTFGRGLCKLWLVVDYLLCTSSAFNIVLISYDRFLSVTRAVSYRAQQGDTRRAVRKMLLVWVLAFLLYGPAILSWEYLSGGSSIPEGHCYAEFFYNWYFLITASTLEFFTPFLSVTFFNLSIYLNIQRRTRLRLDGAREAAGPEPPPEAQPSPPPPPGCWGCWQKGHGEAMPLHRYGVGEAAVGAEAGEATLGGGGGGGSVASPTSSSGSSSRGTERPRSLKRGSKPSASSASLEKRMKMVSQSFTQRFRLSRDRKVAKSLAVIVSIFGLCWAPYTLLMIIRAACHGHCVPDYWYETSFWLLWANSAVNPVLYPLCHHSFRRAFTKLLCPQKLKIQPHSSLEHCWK

Histamine H3 receptor [2] = molecular target: Histamine H3 receptor (Rattus norvegicus, UniProt Q9QYN8); assay: Displacement of [3H]NAMH from rat H3R expressed in CHO cells; type: cell-based
[3] = Metabolic stability in mouse liver microsomes assessed as half life; type: ADME, Microsome
[4] = Clearance in rat at 1 mg/kg, iv; type: ADME, organism-based; parameters: dose 1 mg/kg, route intravenous; conditions: in vivo
Histamine H3 receptor [5] = molecular target: T1, Histamine H3 receptor; assay: Antagonist activity at human H3R expressed in CHO cells assessed as inhibition of R-alpha-methylhistamine-induced [35S]GTPgammaS binding
Target sequence in this assay (Q9Y5N1 whole entry, looked up): as the sequence (Q9Y5N1 whole entry) above

[6] = Metabolic stability in dog liver microsomes assessed as half life; type: ADME, Canis lupus familiaris, Microsome
[7] = AUC (0 to infinity) in rat at 5 mg/kg, po; type: ADME, organism-based; parameters: time infinity, dose 5 mg/kg, route oral; conditions: plasma
Rattus norvegicus [8] = assay: Toxicity in Sprague-Dawley rat EEG/EMG model assessed as EEG abnormality at 3 to 30 mg/kg, ip; type: organism-based; parameters: dose 3-30 mg/kg, route intraperitoneal; conditions: in vivo
[9] = Half life in rat at 1 mg/kg, iv; type: ADME, organism-based; parameters: dose 1 mg/kg, route intravenous; conditions: in vivo
[10] = Cmax in rat at 5 mg/kg, po; type: ADME, organism-based; parameters: dose 5 mg/kg, route oral; conditions: in vivo
[11] = molecular target: Histamine H1 receptor (Homo sapiens) (UniProt P35367); assay: Inhibition of human H1R at 10 uM
[12] = Aqueous solubility of the compound at pH 7.4; type: physicochemical; conditions: buffer
Rattus norvegicus [13] = assay: Inhibition of R-alpha-methylhistamine-induced water intake in ip dosed rat dipsogenia model; type: functional
[14] = molecular target: Histamine H2 receptor (Homo sapiens) (UniProt P25021); assay: Inhibition of human H2R at 10 uM
[15] = AUC (0 to infinity) in rat at 1 mg/kg, iv; type: ADME, organism-based; parameters: time infinity, dose 1 mg/kg, route intravenous; conditions: plasma
Cytochrome P450 1A2 = molecular target: T2, Cytochrome P450 1A2 (Homo sapiens, UniProt P05177); assay: Inhibition of CYP1A2; type: ADME
T2 sequence (P05177 whole entry): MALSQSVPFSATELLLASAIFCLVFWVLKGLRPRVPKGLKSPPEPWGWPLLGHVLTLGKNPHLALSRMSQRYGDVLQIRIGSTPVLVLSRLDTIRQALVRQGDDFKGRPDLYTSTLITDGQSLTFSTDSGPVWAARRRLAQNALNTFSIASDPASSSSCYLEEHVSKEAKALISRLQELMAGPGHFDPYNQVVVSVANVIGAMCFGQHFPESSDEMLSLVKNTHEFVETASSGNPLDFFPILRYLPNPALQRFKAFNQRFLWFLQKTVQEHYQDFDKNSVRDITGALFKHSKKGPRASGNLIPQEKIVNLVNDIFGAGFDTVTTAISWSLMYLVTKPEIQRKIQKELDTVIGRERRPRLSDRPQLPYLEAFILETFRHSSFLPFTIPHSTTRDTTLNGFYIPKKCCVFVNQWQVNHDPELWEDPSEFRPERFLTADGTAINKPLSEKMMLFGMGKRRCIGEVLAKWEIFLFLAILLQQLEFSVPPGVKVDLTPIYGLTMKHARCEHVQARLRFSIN

Histamine H3 receptor [16] = molecular target: T1, Histamine H3 receptor; assay: Inverse agonist activity at human H3R expressed in CHO cells assessed as inhibition of R-alpha-methylhistamine-induced [35S]GTPgammaS binding; type: functional, cell-based
Target sequence in this assay (Q9Y5N1 whole entry): as the sequence (Q9Y5N1 whole entry) above

Rattus norvegicus [17] = assay: Wake promoting activity in Sprague-Dawley rat EEG/EMG model assessed as cumulative wake time at 10 mg/kg, ip; type: functional; conditions: route intraperitoneal
[18] = Metabolic stability in human liver microsomes assessed as half life; type: ADME, Microsome
Cytochrome P450 2C19 = Cytochrome P450 2C19 (Homo sapiens, UniProt P33261); assay: Inhibition of CYP2C19; type: ADME
Cytochrome P450 2C9 = Cytochrome P450 2C9 (Homo sapiens, UniProt P11712); assay: Inhibition of CYP2C9; type: ADME
[19] = Oral bioavailability in rat at 5 mg/kg; type: ADME, organism-based; conditions: in vivo
Rattus norvegicus [20] = assay: Wake promoting activity in Sprague-Dawley rat EEG/EMG model assessed as increase in cumulative wake time at 30 mg/kg, ip up to 7.5 hrs; type: functional, organism-based; parameters: dose 30 mg/kg
Rattus norvegicus [21] = assay: Wake promoting activity in Sprague-Dawley rat EEG/EMG model assessed as sleep rebound at 3 to 30 mg/kg, ip up to 22 hrs; type: functional, organism-based
[22] = molecular target: Histamine H4 receptor (Homo sapiens) (UniProt Q9H3N8); assay: Inhibition of human H4R at 10 uM
Rattus norvegicus [23] = assay: Wake promoting activity in Sprague-Dawley rat EEG/EMG model assessed as increase in cumulative wake time at 30 mg/kg, ip up to 4 hrs; type: functional; conditions: route intraperitoneal
[24] = Volume of distribution in rat at 1 mg/kg, iv; type: ADME, organism-based; parameters: dose 1 mg/kg, route intravenous; conditions: in vivo
[25] = Ratio of drug level from brain to plasma of rat at 10 mg/kg, ip after 1 hr; type: ADME, organism-based; parameters: dose 10 mg/kg, route intraperitoneal; conditions: read-out: BPR
Cytochrome P450 3A4 = Cytochrome P450 3A4 (Homo sapiens, UniProt P08684); assay: Inhibition of CYP3A4; type: ADME
[26] = Metabolic stability in rat liver microsomes assessed as half life; type: ADME, Microsome
[27] = Aqueous solubility of the compound at pH 2; type: physicochemical; conditions: buffer
Cytochrome P450 2D6 = Cytochrome P450 2D6 (Homo sapiens, UniProt P10635); assay: Inhibition of CYP2D6; type: ADME
Histamine H3 receptor [28] = molecular target: T1, Histamine H3 receptor; assay: Antagonist activity at human H3R expressed in CHO cells assessed as inhibition of R-alpha-methylhistamine-induced [35S]GTPgammaS binding; type: functional, cell-based
Target sequence in this assay (Q9Y5N1 whole entry): as the sequence (Q9Y5N1 whole entry) above

Rattus norvegicus [29] = assay: Wake promoting activity in Sprague-Dawley rat EEG/EMG model assessed as cumulative wake time at 30 mg/kg, ip; type: functional; conditions: route intraperitoneal
Rattus norvegicus [30] = assay: Wake promoting activity in ip dosed Sprague-Dawley rat EEG/EMG model assessed as cumulative wake time; type: functional, organism-based
Rattus norvegicus [31] = assay: Wake promoting activity in Sprague-Dawley rat EEG/EMG model assessed as increase in cumulative wake time at 30 mg/kg, ip up to 4.5 hrs; type: functional, organism-based; parameters: dose 30 mg/kg
Rattus norvegicus [32] = assay: Wake promoting activity in Sprague-Dawley rat EEG/EMG model assessed as increase in cumulative wake time at 30 mg/kg, ip relative to vehicle treated animals; type: functional; conditions: route intraperitoneal
Rattus norvegicus [33] = assay: Wake promoting activity in Sprague-Dawley rat EEG/EMG model assessed as sleep rebound at 3 to 30 mg/kg, ip; type: functional, organism-based
Rattus norvegicus [34] = assay: Wake promoting activity in Sprague-Dawley rat EEG/EMG model assessed as cumulative wake time at 30 mg/kg, ip after 7 hrs; type: functional; conditions: route intraperitoneal

Sequence of Histamine H3 receptor (Rattus norvegicus, UniProt Q9QYN8) (Q9QYN8 whole entry): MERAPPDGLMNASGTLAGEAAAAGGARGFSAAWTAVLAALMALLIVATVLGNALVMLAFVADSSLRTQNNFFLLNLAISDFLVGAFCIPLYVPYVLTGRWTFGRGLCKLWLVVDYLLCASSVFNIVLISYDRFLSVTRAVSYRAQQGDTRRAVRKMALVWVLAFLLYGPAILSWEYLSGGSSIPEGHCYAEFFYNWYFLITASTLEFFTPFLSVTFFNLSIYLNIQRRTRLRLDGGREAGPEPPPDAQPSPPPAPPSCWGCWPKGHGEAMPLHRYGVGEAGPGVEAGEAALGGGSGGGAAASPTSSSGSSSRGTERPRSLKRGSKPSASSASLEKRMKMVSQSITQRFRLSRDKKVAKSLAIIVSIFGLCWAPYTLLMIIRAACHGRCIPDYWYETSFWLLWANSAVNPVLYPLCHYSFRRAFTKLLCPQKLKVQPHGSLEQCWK
Sequence of Cytochrome P450 2D6 (P10635 whole entry): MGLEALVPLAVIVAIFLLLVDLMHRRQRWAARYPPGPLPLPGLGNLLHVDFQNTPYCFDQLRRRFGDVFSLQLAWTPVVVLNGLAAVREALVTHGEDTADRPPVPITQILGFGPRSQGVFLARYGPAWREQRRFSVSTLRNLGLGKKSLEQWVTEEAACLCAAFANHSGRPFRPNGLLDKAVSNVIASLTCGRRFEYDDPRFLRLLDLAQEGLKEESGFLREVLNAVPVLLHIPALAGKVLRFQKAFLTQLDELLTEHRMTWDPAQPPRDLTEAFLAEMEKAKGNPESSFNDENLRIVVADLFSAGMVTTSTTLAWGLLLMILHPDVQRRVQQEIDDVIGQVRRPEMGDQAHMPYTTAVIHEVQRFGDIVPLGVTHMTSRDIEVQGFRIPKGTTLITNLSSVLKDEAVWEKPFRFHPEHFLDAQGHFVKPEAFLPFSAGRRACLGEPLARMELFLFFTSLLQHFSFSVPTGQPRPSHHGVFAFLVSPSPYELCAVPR
Sequence of Cytochrome P450 3A4 (P08684 whole entry): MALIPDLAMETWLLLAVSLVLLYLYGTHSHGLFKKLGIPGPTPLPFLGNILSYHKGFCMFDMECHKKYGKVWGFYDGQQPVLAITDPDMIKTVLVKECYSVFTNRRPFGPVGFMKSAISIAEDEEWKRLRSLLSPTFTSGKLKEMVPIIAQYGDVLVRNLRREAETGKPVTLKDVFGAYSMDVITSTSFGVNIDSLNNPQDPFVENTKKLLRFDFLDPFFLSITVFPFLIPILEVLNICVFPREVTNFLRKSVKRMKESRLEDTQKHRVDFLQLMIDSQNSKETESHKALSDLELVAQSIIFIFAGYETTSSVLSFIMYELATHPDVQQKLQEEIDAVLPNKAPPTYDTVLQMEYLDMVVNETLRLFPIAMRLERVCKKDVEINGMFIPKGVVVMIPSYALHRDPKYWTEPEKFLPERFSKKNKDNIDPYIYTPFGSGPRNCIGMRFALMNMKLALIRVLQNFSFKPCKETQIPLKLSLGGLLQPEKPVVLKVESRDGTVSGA
Sequence of Histamine H2 receptor (Homo sapiens) (P25021 whole entry): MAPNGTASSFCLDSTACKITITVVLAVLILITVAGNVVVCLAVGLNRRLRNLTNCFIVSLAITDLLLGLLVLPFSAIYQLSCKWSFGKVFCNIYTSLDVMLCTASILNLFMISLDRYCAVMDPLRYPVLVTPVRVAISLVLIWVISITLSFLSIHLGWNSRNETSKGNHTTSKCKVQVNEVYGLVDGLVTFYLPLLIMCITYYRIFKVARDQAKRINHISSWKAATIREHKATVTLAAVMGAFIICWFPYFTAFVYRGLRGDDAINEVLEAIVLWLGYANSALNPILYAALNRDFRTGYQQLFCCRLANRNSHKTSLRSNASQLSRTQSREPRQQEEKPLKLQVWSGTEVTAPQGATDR
Sequence of Histamine H1 receptor (Homo sapiens) (P35367 whole entry): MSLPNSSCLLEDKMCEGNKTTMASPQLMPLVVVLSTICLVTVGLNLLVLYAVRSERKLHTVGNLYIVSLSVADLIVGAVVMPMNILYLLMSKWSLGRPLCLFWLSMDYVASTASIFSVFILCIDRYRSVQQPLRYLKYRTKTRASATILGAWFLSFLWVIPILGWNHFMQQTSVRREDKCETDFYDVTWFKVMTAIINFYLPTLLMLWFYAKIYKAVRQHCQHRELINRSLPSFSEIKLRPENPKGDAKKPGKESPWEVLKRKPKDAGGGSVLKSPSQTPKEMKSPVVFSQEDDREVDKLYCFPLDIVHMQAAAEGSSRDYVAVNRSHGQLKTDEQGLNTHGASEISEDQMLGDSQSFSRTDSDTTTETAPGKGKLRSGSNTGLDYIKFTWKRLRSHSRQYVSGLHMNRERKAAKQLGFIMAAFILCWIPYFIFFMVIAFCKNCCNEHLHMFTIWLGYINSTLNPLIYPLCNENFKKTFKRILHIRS
Sequence of Cytochrome P450 2C9 (P11712 whole entry): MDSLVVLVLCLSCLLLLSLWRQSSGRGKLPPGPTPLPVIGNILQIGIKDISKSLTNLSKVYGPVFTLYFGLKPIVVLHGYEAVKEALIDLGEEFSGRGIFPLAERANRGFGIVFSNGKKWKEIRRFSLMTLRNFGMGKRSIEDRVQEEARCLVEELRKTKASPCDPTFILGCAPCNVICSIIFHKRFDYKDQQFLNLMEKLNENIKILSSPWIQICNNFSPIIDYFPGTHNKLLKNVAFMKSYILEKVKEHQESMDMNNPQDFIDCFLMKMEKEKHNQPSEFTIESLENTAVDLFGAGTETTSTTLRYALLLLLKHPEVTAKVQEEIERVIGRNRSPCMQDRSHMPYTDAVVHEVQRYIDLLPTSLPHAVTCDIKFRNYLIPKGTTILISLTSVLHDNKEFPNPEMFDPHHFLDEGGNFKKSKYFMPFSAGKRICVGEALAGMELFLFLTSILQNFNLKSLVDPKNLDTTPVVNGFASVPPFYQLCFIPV
Sequence of Cytochrome P450 2C19 (P33261 whole entry): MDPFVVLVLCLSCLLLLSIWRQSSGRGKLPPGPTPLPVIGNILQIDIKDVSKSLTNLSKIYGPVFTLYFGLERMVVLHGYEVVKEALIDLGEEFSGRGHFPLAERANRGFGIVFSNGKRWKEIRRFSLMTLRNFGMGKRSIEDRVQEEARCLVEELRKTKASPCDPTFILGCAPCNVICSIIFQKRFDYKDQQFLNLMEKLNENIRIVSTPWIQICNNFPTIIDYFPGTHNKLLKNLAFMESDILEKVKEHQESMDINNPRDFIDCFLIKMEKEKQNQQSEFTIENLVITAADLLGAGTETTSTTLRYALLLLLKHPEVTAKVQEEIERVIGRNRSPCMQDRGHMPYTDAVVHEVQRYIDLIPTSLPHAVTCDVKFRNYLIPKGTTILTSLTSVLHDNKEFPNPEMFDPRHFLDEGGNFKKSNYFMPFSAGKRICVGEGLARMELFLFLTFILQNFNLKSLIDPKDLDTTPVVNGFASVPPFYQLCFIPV

Structure (SMILES): C[C@@H]1CCCN1CCc1ccc(-c2ccc(=O)n(-c3ccc(F)cc3)n2)cc1
half-life [3]: > 40 min | clearance [4]: 21 mL/min/kg | Activity (Histamine H3 receptor [5]): Active | half-life [6]: > 40 min | AUC(0-inf) [7]: 1730 ng·h/mL | Ki (Histamine H3 receptor [1]): 13 nM | Activity (Rattus norvegicus [8]): Non-toxic | half-life [9]: 138 min | Cmax [10]: 255 ng/mL | inhibition [11]: < 30% | solubility [12]: > 125 µg/mL | ED50 (Rattus norvegicus [13]): 0.02 mg/kg | inhibition (Rattus norvegicus [13]): Dose-dependent effect | inhibition [14]: < 30% | AUC(0-inf) [15]: 1300 ng·h/mL | IC50 (Cytochrome P450 1A2): > 30000 nM | EC50 (Histamine H3 receptor [16]): 2.1 nM | Time (Rattus norvegicus [17]): 207 min | half-life [18]: > 40 min | Ki (Histamine H3 receptor [2]): 48 nM | IC50 (Cytochrome P450 2C19): > 30000 nM | IC50 (Cytochrome P450 2C9): > 30000 nM | bioavailability [19]: 27% | Activity (Rattus norvegicus [20]): Active | Activity (Rattus norvegicus [21]): inactive | inhibition [22]: < 30% | Activity (Rattus norvegicus [23]): 94% | Vd [24]: 4.8 L/kg | Kp at 1 h [25]: 11 | IC50 (Cytochrome P450 3A4): > 30000 nM | half-life [26]: > 40 min | solubility [27]: > 125 µg/mL | IC50 (Cytochrome P450 2D6): > 30000 nM | Activity (Histamine H3 receptor [28]): Active

Structure (SMILES): C[C@@H]1CCCN1CCCOc1ccc(-c2ccc(=O)[nH]n2)cc1 [IRDABISANT]
Ki (Histamine H3 receptor [2]): 7 nM

Structure (SMILES): C[C@@H]1CCCN1CCc1ccc(-c2ccc(=O)n(C)n2)cc1
Time (Rattus norvegicus [29]): 235 min | Time (Rattus norvegicus [30]): Dose-dependent effect | half-life [3]: 25 min | clearance [4]: 12 mL/min/kg | Activity (Histamine H3 receptor [5]): Active | half-life [6]: > 40 min | AUC(0-inf) [7]: 28 ng·h/mL | Ki (Histamine H3 receptor [1]): 7 nM | Activity (Rattus norvegicus [8]): Non-toxic | half-life [9]: 30 min | Cmax [10]: 18 ng/mL | inhibition [11]: < 30% | ED50 (Rattus norvegicus [13]): 0.07 mg/kg | inhibition (Rattus norvegicus [13]): Dose-dependent effect | inhibition [14]: < 30% | Activity (Rattus norvegicus [31]): Active | Activity (Rattus norvegicus [32]): 68% | AUC(0-inf) [15]: 1650 ng·h/mL | IC50 (Cytochrome P450 1A2): > 30000 nM | EC50 (Histamine H3 receptor [16]): 2 nM | Time (Rattus norvegicus [17]): 161 min | half-life [18]: > 40 min | Ki (Histamine H3 receptor [2]): 58 nM | IC50 (Cytochrome P450 2C19): > 30000 nM | IC50 (Cytochrome P450 2C9): > 30000 nM | bioavailability [19]: < 1% | inhibition [22]: < 30% | Activity (Rattus norvegicus [23]): 98% | Vd [24]: 0.6 L/kg | Activity (Rattus norvegicus [33]): inactive | Kp at 1 h [25]: 6 | IC50 (Cytochrome P450 3A4): > 30000 nM | half-life [26]: 39 min | Time (Rattus norvegicus [34]): 200 min | IC50 (Cytochrome P450 2D6): > 30000 nM | Activity (Histamine H3 receptor [28]): Active

Structure (SMILES): Cn1nc(-c2ccc(CCN3CCCC3)cc2)ccc1=O
Ki (Histamine H3 receptor [1]): 83 nM | Ki (Histamine H3 receptor [2]): 135 nM

Structure (SMILES): C[C@@H]1CCCN1CCc1ccc(-c2ccc(=O)[nH]n2)cc1
Ki (Histamine H3 receptor [1]): 31 nM | Ki (Histamine H3 receptor [2]): 43 nM

Structure (SMILES): C[C@@H]1CCCN1CCc1ccc(-c2ccc(=O)n(Cc3ccccc3)n2)cc1
Ki (Histamine H3 receptor [1]): 5 nM | Ki (Histamine H3 receptor [2]): 18 nM

Now from value to compound:

Ki (Histamine H3 receptor [1]): 47 nM | Ki (Histamine H3 receptor [2]): 242 nM
Structure (SMILES): C[C@@H]1CCCN1CCc1ccc(-c2ccc(=O)n(-c3ccccn3)n2)cc1

Ki (Histamine H3 receptor [1]): 34 nM | Ki (Histamine H3 receptor [2]): 42 nM
Structure (SMILES): C[C@@H]1CCCN1CCc1ccc(-c2ccc(=O)n(-c3ccccc3)n2)cc1

Ki (Histamine H3 receptor [1]): 8 nM | Ki (Histamine H3 receptor [2]): 26 nM
Structure (SMILES): C[C@@H]1CCCN1CCc1ccc(-c2ccc(=O)n(-c3ccc(Cl)cc3)n2)cc1
